In patent publication US8258096B2, “Therapy procedure for drug delivery for trigeminal pain” (The Board of Trustees of the Leland Stanford Junior …, priority 2005, dated 2012):

What was measured:
Type in all cases: in vivo
[1] = test system: second-order neurons in the trigeminal nucleus caudalis; experiment: Electrical stimulus-induced windup; conditions: rat, intranasal 0.025 ml of 0.05 mg/ml
Excerpt: Male Sprague-Dawley rats (Charles River Laboratories) were anesthetized with isoflurane and used in the following experiments. […] Needle electrodes were inserted subcutaneously at the site indicated in FIG. 5A by the black spot on the rat's head, and the skin was stimulated at 0.66 Hz, 2 msec duration, 3×C-fiber threshold for >25 times.

[2] = test system: trigeminal nucleus caudalis wide dynamic range (WDR) neurons; experiment: Long-pulse laser-induced responses of trigeminal nucleus caudalis WDR neurons; conditions: rat, intranasal 0.025 ml of 0.05 mg/ml
Description: Male Sprague-Dawley rats (Charles River Laboratories) were anesthetized with isoflurane and used in the following experiments. In the anesthetized rats, single unit, extracellular recordings were performed in trigeminal nucleus caudalis while stimulating the ipsilateral facial skin with diode laser or constant-current bipolar electrical stimulation. Epoxylate-insulated, tungsten microelectrodes (10 MOhm) were used under stereotaxic coordinate control. […] Shown are responses (action potentials per second) to an 8 second-duration, 425 mA intensity laser stimulus to the site indicated by the black spot on a map of the rat's face (FIG. 4E).

[3] = test system: Sprague-Dawley rats; experiment: Withdrawal latencies after noxious laser thermal stimulation of ears or hindpaws after intranasal administration; conditions: rat, intranasal 10 nmoles/kg, tested from five minutes after final application
Excerpt: One way to test activity of an analgesic agent in a rat model is by treatment-induced changes in latencies (times) of withdrawal in response to noxious heating of the skin, typically using an ear, the face or a hindpaw. Thus, application of coherent or non-coherent (non-laser) radiant heat to the ear, the face or hindpaw will elicit rapid withdrawal movements. […] Transmucosal or transdermal administration of analgesic agents to the trigeminal nerve to reduce trigeminal nerve-associated pain can be tested for regional and/or systemic analgesia. The rostral external part of a rat's ear is innervated by a branch of the mandibular nerve, itself a branch of the trigeminal nerve, thus after treatment an increase in latency to withdrawal time would indicate regional analgesia. […]
Sprague-Dawley rats (Charles River Laboratories) were lightly anesthetized with urethane and placed with minimal restraint on a heating pad to maintain their body temperature at 37° C. […] Baseline withdrawal latencies were measured by delivering 4 separate stimuli with a resting period of approximately 15 minutes between each stimulus. […] As described above, testing sessions were videotaped and analyzed.

[4] = test system: single pain sensing nerve cells in the trigeminal ganglion; experiment: Nerve impulses of single trigeminal ganglion neurons in response to noxious laser pulses to the face; conditions: rat, 10 nmoles applied to the nose, FIG. 2
Description: Sprague-Dawley rats (Charles River Laboratories) were anesthetized with isofluorane and a platinum electrode was inserted transcranially into the trigeminal ganglion. Nerve impulses (action potential) were recorded from single pain sensing nerve cells in the trigeminal ganglion in response to application of noxious laser pulses to the face of the rats. After recording responses to several identical laser pulses, 10 nmoles of oxytocin was applied to the nose of the rats. Thereafter, identical laser pulses were once again applied and recorded.

[5] = test system: trigeminal nucleus caudalis wide dynamic range (WDR) neurons; experiment: Electrical stimulation-induced responses of trigeminal nucleus caudalis WDR neurons; conditions: rat
Description: Male Sprague-Dawley rats (Charles River Laboratories) were anesthetized with isoflurane and used in the following experiments. In the anesthetized rats, single unit, extracellular recordings were performed in trigeminal nucleus caudalis while stimulating the ipsilateral facial skin with constant-current bipolar electrical stimulation. Epoxylate-insulated, tungsten microelectrodes (10 MOhm) were used under stereotaxic coordinate control.
Shown are responses (action potentials per 30 stimuli) to repeated stimulation of a rat's face before oxytocin administration (pre-oxytocin). After administration with oxytocin at approximately 0.1 IU, responses were recorded every five minutes for 65 minutes. A second administration of oxytocin at the same dosage was administered at approximately 70 minutes after the first dose. The approximate site of the administration of the electrical stimulation is indicated by the black spot on a map of the rat's face (FIG. 3B).

[6] = intranasal approximately 0.1 IU, first dose
[7] = second intranasal dose approximately 0.1 IU at approximately 70 minutes after the first

C[C@@H](O)[C@@H]1NC(=O)[C@H](CCCCN)NC(=O)[C@@H](Cc2c[nH]c3ccccc23)NC(=O)[C@H](Cc2ccccc2)NC(=O)[C@@H](NC(=O)[C@H](N)Cc2ccccc2)CSSC[C@@H](C(=O)N[C@H](CO)[C@@H](C)O)NC1=O [octreotide]
reduction of total number of action potentials ([1]; 10 minutes after administration vs before): 19.4% | total number of action potentials during the stimulation period ([1]; 10 minutes after administration, 25 stimulations at 0.66 Hz, 506 before treatment): 408 | response five minutes post-treatment ([2]; 8 second 425 mA laser stimulus, 5 minutes, FIG. 4B): no detectable reduction in response | response at 10 minutes post-treatment ([2]; 8 second 425 mA laser stimulus, 10 minutes, baseline 42 spikes): 5 spikes | reduction of response at 10 minutes post-treatment ([2]; 10 minutes vs pre-treatment baseline): 88% | response 25 minutes post-treatment ([2]; 25 minutes, FIG. 4D): recovered

Tyr-Gly-Gly-Phe-Met [met-enkephalin]
regional analgesic effect (ear withdrawal latency) ([3]; laser to ears, FIG. 1A): achieved a regional analgesic effect in the head region | systemic analgesic effect (hindpaw withdrawal latency) ([3]; laser to hindpaws, FIG. 1B): without a systemic analgesic effect at the hindpaw

CC[C@H](C)[C@@H]1NC(=O)[C@H](Cc2ccc(O)cc2)NC(=O)[C@@H](N)CSSC[C@@H](C(=O)N2CCC[C@H]2C(=O)N[C@@H](CC(C)C)C(=O)NCC(N)=O)NC(=O)[C@H](CC(N)=O)NC(=O)[C@H](CCC(N)=O)NC1=O [Oxytocin, Cys-Tyr-Ile-Gln-Asn-Cys-Pro-Leu-Gly]
neuronal response (average nerve impulses per laser pulse), post- vs pre-treatment [4]: significantly (p<0.05) reduced | responses (action potentials per 30 stimuli) after first administration ([5]; intranasal approximately 0.1 IU, electrical stimulation of face, FIG. 3A): significant reduction in responses | time after first administration at which reduction in responses began [5, 6]: 10 min | time post treatment until which reduction continued (responses then began to increase) [5, 6]: 50 min | responses (action potentials per 30 stimuli) after second administration [5, 7]: significant reduction in responses | time to reduction in responses after second administration [5, 7]: ≤ 10 min
